Experimental data taken from BindingDB's records for doi:10.1021/jm00352a017 (1983).

Key:
[1] = Inhibition of rat liver pyruvate kinase (PK-L) at 3.6 mM
[2] = Inhibition of rat kidney pyruvate kinase (PK-K) at 6.7 mM
[3] = Michaelis-Menten constant for inhibition of rat kidney pyruvate kinase (PK-K)
[4] = Inhibition of rat kidney pyruvate kinase (PK-K)

SMILES	Ki [4]	further results
CO[C@H]1[C@@H](O)[C@H](n2cnc3c(N)ncnc32)O[C@@H]1COP(=O)(O)OP(=O)(O)O [[5-(6-amino-9H-purin-9-yl)-4-hydroxy-3-methoxytetrahydrofuran-2-yl]methyl trihydrogen diphosphate]	–	Ki [1]: 7 mM
C[C@@H](OP(=O)(O)OP(=O)(O)O)[C@H]1OC(n2cnc3c(N)ncnc32)[C@H](O)[C@@H]1O (stereo partly specified)	–	Ki [2]: 10.9 mM; Ki [3]: 8 mM
CCNc1nc2c(N)ncnc2n1C1O[C@H](COP(=O)(O)OP(=O)(O)O)[C@@H](O)[C@H]1O (stereo partly specified)	2.9 mM	–
CSc1nc2c(N)ncnc2n1C1O[C@H](COP(=O)(O)OP(=O)(O)O)[C@@H](O)[C@H]1O (stereo partly specified)	5 mM	–
CCSc1nc2c(N)ncnc2n1C1O[C@H](COP(=O)(O)OP(=O)(O)O)[C@@H](O)[C@H]1O (stereo partly specified)	3.9 mM	–
